Measurements published in patent US20200345021A1, “METHOD AND SYSTEM FOR ENHANCING THE EFFICACY USING IONIZED/A[…] PEROXIDE IN REDUCING MICROBIAL POPULATIONS, METHOD OF USE THEREOF” (priority 2019, published 2020).
Values joined by “and” are separate entries in the source; they are usually repeats but may differ in a detail not shown here. Equal values may be shown once. Read-outs that look alike come from different tables or passages of the source. Marks after values point to notes of the source that are not given here.

Tests used:
Listeria innocua = test: Effect of cold plasma activation on efficacy of ionized/aerosolized H2O2 against Listeria innocua (Study 2); type: cell-based
Excerpt: (§1) To minimize the risk of possible bacteria becoming airborne during treatments, attenuated and non-pathogenic bacteria were used in the study. Two strains of non-pathogenic S. Typhimurium (ATCC 53647 and 53648) and three strains of L. innocua (ATCC 33090, ATCC 51742 and ATCC BAA680) were obtained from American Type Culture Collection (ATCC) (Manassas, Va., USA). Further studies used E. coli O157:H7 (ATCC 700728), S. Typhimurium (ATCC 53647 and 53648), and L. innocua (ATCC 33090) obtained from American Type Culture Collection (ATCC) (Manassas, Va., USA) and maintained as a part of the culture collection at the USDA Eastern Regional Research Center (Wyndmoor, Pa. USA). The bacteria were made to be resistant to nalidixic acid by successive growth in Trypic Soy Broth (TSB) (Difco, Sparks, Md., USA) with increasing nalidixic acid concentrations. All strains were stored at −80° C. in 1 mL of TSB containing 10% glycerol. Working cultures of S. Typhimurium and L. innocua were maintained in 9 mL TSB (supplemented with 100 μg/mL nalidixic acid for S. Typhimurium) at 4° C. after incubating at 37° C. for […], respectively, and sub-cultured each time.
(§2) Each strain of S. Typhimurium and L. innocua was cultured in 9 mL TSB (supplemented with 100 μg/mL nalidixic acid for S. Typhimurium) and incubated at 37° C. for 40 h and 48 h, respectively, harvested by centrifugation at 4000×g for 10 min at 4° C., and resuspended in 9 mL sterile Buffered Peptone Water (BPW; Difco). The pellets were resuspended in BPW to form cell suspensions with a final concentration of 108˜10^9 CFU/mL. Subsequently, suspended pellets of two strains of Salmonella and three strains of L. innocua were combined to obtain two separate culture cocktails.
(§3) Grape tomatoes, granny smith apples, romaine lettuce and cantaloupes were purchased from local markets (Philadelphia, Pa., USA) and kept at 10° C. prior to use. Fruits and vegetables were removed from 10° C. refrigeration and equilibrated to ambient temperature before being inoculated. Romaine lettuce was divided into upper green leaf and midrib tissues. Six tomatoes, six pieces (2×2 cm) of apple skins, five pieces (3×3 cm) of Romaine lettuce upper leaves, five pieces (3 cm length) of Romaine lettuce midrib area and six pieces (2×2 cm) of cantaloupe rinds with 2×3 mm thickness of flesh were used for each treatment per replicate. Bach piece w as spot inoculated with 10 μL of Salmonella and L. innocua by depositing droplets with a micropipette. The inoculated samples were dried in a bio-hood for 1 h (for tomato surfaces, romaine lettuce, apple skins and cantaloupe rinds) or 2 h (for tomato stem scars) at ambient temperature.
(§4) Produce items were placed onto a sterile test tube rack with the inoculated area facing up and the rack with produce pieces were placed inside of a treatment chamber (12×12×24 inch).
(§5) Therefore, each kind of produce was treated with and without cold plasma ionized under the same optimized conditions.
(§6) After each treatment, the tomato stem scars and surfaces with the inoculated bacteria were removed using a pair of sterile scissors. Each type of produce item from the same treatment was combined (total weight: 1.51±0.29 g for tomato stem scars; 2.07±0.15 g for tomato surfaces; 6.37±0.92 g for apple skins; 1.62±0.34 g for Romaine lettuce upper leaves: 13.30±2.97 g for Romaine lettuce midrib tissues: 9.58±1.26 g for cantaloupe rinds) and transferred into an 80 mL filtered stomacher bag. After addition of 30 mL BBL buffered peptone water into the bag, the sample in the bag was homogenized using a mini blender (Mini Mix CC, Interscience laboratories Inc., Woburn, Mass., USA) for 2 min at a setting of 4. […] Tryptic Soy Agar with 200 μg/mL pyruvate acid and 100 μg/mL nalidixic acid (TSA-PN) and PALCAM Agars (Difco) were used for the enumeration of S. Typhimurium and L. innocua, respectively.

Salmonella Typhimurium = type: cell-based
Excerpt: as §1, §2, §3, §4, §5, §6

[1] = Cantaloupe rind, 30 s spray time + 30 min dwell
[2] = Romaine lettuce-midrib, 30 s spray time + 30 min dwell
[3] = Romaine lettuce-upper leaf, 30 s spray time + 30 min dwell
[4] = Tomato-stem scar, three cycles of 20 s spray time plus 20 min dwell time
[5] = Tomato-surface, 8 s spray time + 30 min dwell

SMILES: OO [H2O2 − cold plasma, hydrogen peroxide]
- Reductions of Listeria innocua (Listeria innocua; [1]): 1.57 ± 0.37^y log CFU/piece
- Populations of Listeria innocua (Listeria innocua; Cantaloupe rind, 30 s spray time + 30 min dwell, ND1: not detectable (detection limit 0.70 log CFU/piece)): 3.88 ± 0.37^b log CFU/piece
- Reductions of Listeria innocua (Listeria innocua; Granny Smith apple, 8 s spray time + 30 min dwell): 2.69 ± 0.20^y log CFU/piece
- Populations of Listeria innocua (Listeria innocua; Granny Smith apple, 8 s spray time + 30 min dwell, ND1: not detectable (detection limit 0.70 log CFU/piece)): 2.90 ± 0.20^b log CFU/piece
- Reductions of Listeria innocua (Listeria innocua; [2]): 3.77 ± 0.35^y log CFU/piece
- Populations of Listeria innocua (Listeria innocua; Romaine lettuce-midrib, 30 s spray time + 30 min dwell, ND2: not detectable (detection limit 0.76 log CFU/piece)): 1.82 ± 0.35^b log CFU/piece
- Reductions of Listeria innocua (Listeria innocua; Romaine lettuce-midrib, 30 s spray time + 30 min dwell, listed as hydrogen peroxide (H2O2) aerosols without cold plasma): 3.77 log CFU/piece
- Reductions of Listeria innocua (Listeria innocua; [3]): 2.77 ± 0.34^y log CFU/piece
- Populations of Listeria innocua (Listeria innocua; Romaine lettuce-upper leaf, 30 s spray time + 30 min dwell, ND2: not detectable (detection limit 0.76 log CFU/piece)): 2.80 ± 0.34^b log CFU/piece
- Populations of Listeria innocua (Listeria innocua; [4]): 4.21 ± 0.60^b log CFU/piece
- Reductions of Listeria innocua (Listeria innocua; [4]): 1.35 ± 0.60^y log CFU/piece
- Reductions of Listeria innocua (Listeria innocua; Tomato-stem scar, three cycles of 20 s spray time plus 20 min dwell time, listed as hydrogen peroxide (H2O2) aerosols without cold plasma): 1.35 log CFU/piece
- Reductions of Listeria innocua (Listeria innocua; [5]): 2.74 ± 0.21^y log CFU/piece
- Populations of Listeria innocua (Listeria innocua; Tomato-surface, 8 s spray time + 30 min dwell, ND1: not detectable (detection limit 0.70 log CFU/piece)): 2.77 ± 0.21^b log CFU/piece
- Populations of Salmonella Typhimurium (Salmonella Typhimurium; [1]): 4.83 ± 0.36^b log CFU/piece
- Reductions of Salmonella Typhimurium (Salmonella Typhimurium; [1]): 1.54 ± 0.36^y log CFU/piece
- Reductions of Salmonella Typhimurium (Salmonella Typhimurium; Granny Smith apples, 8 s spray time + 30 min dwell): 2.08 ± 0.17^y log CFU/piece
- Populations of Salmonella Typhimurium (Salmonella Typhimurium; Granny Smith apples, 8 s spray time + 30 min dwell, ND: not detectable (detection limit 0.70 log CFU/piece)): 3.77 ± 0.17^b log CFU/piece
- Reductions of Salmonella Typhimurium (Salmonella Typhimurium; Granny Smith apples, 8 s spray time + 30 min dwell, listed as hydrogen peroxide (H2O2) aerosols without cold plasma): 2.08 log CFU/piece
- Populations of Salmonella Typhimurium (Salmonella Typhimurium; [2]): 4.16 ± 0.28^b log CFU/piece
- Reductions of Salmonella Typhimurium (Salmonella Typhimurium; [2]): 1.78 ± 0.28^y log CFU/piece
- Populations of Salmonella Typhimurium (Salmonella Typhimurium; [3]): 4.70 ± 0.23^b log CFU/piece
- Reductions of Salmonella Typhimurium (Salmonella Typhimurium; [3]): 1.72 ± 0.23^y log CFU/piece
- Populations of Salmonella Typhimurium (Salmonella Typhimurium; [4]): 4.40 ± 0.28^b log CFU/piece
- Reductions of Salmonella Typhimurium (Salmonella Typhimurium; [4]): 1.54 ± 0.28^y log CFU/piece
- Reductions of Salmonella Typhimurium (Salmonella Typhimurium; [5]): 3.17 ± 0.33^y log CFU/piece
- Populations of Salmonella Typhimurium (Salmonella Typhimurium; Tomato-surface, 8 s spray time + 30 min dwell, ND: not detectable (detection limit 0.70 log CFU/piece)): 2.46 ± 0.33^b log CFU/piece
- Reductions of Salmonella Typhimurium (Salmonella Typhimurium; Tomato-surface, 8 s spray time + 30 min dwell, listed as hydrogen peroxide (H2O2) aerosols without cold plasma): 3.17 log CFU/piece
- Reductions of Salmonella, range over the fresh produce items (Salmonella Typhimurium; all tested produce items and surfaces, optimized conditions, listed as hydrogen peroxide (H2O2) aerosols without cold plasma): 1.54-3.17 log CFU/piece and 1.53-3.17 log CFU/piece
